What was measured:
[1] = target: T1, Mcl-1/Bim interaction, recombinant human Mcl-1 (171-327) (Homo sapiens, UniProt Q07820); assay: Cell free Mcl-1: Bim Affinity Assay (Mcl-1 HTRF); format: binding; settings: TR-FRET, 0.1 nM Mcl-1 (171-327), 0.05 nM biotin-Bim (51-76)
T1 construct: made in house
Outline: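 Biotin-Bim(51-76) peptide, TR-FRET readout, overnight incubation; IC50 from duplicate competition curves, 4-parameter fit.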

[2] = test system: OPM-2 human multiple myeloma cell line; assay: Cell Viability Assay (OPM-2 10 FBS); format: cell-based; settings: Homo sapiens, OPM-2, 16 h, OPM-2 cells, 16 h, CellTiter-Glo
Outline: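 OPM-2 myeloma cells, 3000/well in medium with 10% FBS, exposed to serially diluted compounds for 16 h at 37° C./5% CO2. Viability read by CellTiter-Glo luminescence; IC50 from 4-parameter logistic fit.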

T1 sequence (Q07820 171-327): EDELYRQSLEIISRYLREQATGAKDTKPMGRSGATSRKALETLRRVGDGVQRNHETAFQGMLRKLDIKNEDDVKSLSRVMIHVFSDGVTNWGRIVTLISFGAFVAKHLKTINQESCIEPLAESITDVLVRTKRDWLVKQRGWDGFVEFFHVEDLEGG

IC50 [1] [nM]	IC50 [2] [nM]	SMILES
0.359	248	COCCO[C@H]1/C=C/C[C@H](C)NS(=O)(=O)NC(=O)c2ccc3c(c2)N(C[C@@H]2CC[C@H]21)C[C@@]1(CCCc2cc(Cl)ccc21)CO3 [Example 68, (1S,3′R,6′R,7′S,8′E,11′S)-6-chloro-7′-(2-methoxyethoxy)-11′-methyl-3,4-dihydro-2H,15′H-spiro[naphthalene-1,22′-[20]oxa[13]thia[1,12,14]triazatetracyclo[14.7.2.0^3,6.0^19,24]pentacosa[8,16,18,24]tetraen]-15′-one 13′,13′-dioxide]
1.16	44.2	COC(=O)CCO[C@H]1/C=C/C[C@H](C)NS(=O)(=O)NC(=O)c2ccc3c(c2)N(C[C@@H]2CC[C@H]21)C[C@@]1(CCCc2cc(Cl)ccc21)CO3 [Example 70, methyl 3-(((1S,3′R,6′R,7′S,8′E,11′S)-6-chloro-11′-methyl-13′,13′-dioxido-15′-oxo-3,4-dihydro-2H-spiro [naphthalene-1,22′-[20]oxa[13]thia[1,12,14]triazatetracyclo[14.7.2.0^3,6.0^19,24]pentacosa[8,16,18,24]tetraen]-7′-yl)oxy)propanoate]
2.62	3160	C[C@@H]1C/C=C/[C@H](O)[C@@H]2CC[C@H]2CN2C[C@@]3(CCCc4cc(Cl)ccc43)COc3ccc(cc32)C(=O)NS(=O)(=O)N1 [Example 71, (1S,3′R,6′R,7′S,8′E,11R)-6-chloro-7′-hydroxy-11′-methyl-3,4-dihydro-2H,15′H-spiro[naphthalene-1,22′-[20]oxa[13]thia[1,12,14]triazatetracyclo[14.7.2.0^3,6.0^19,24]pentacosa[8,16,18,24]tetraen]-15′-one 13′,13′-dioxide]
0.405	146	C[C@H]1C/C=C/[C@H](O)[C@@H]2CC[C@H]2CN2C[C@@]3(CCCc4cc(Cl)ccc43)COc3ccc(cc32)C(=O)NS(=O)(=O)N1CCN(C)C [Example 76, (1S,3′R,6′R,7′S,8′E,11′S)-6-chloro-12′-(2-(dimethylamino)ethyl)-7′-hydroxy-11′-methyl-3,4-dihydro-2H,15′H-spiro[naphthalene-1,22′-[20]oxa[13]thia[1,12,14]triazatetracyclo[14.7.2.0^3,6.0^19,24]pentacosa[8,16,18,24]tetraen]-15′-one 13′,13′-dioxide]
0.593	442	CO[C@H]1C[C@@H](N2[C@@H](C)C/C=C/[C@H](O)[C@@H]3CC[C@H]3CN3C[C@@]4(CCCc5cc(Cl)ccc54)COc4ccc(cc43)C(=O)NS2(=O)=O)C1 [Example 77, (1S,3′R,6′R,7′S,8′E,11′S)-6-chloro-7′-hydroxy-12′-(cis-3-methoxycyclobutyl)-11′-methyl-3,4-dihydro-2H,15′H-spiro[naphthalene-1,22′-[20]oxa[13]thia[1,12,14]triazatetracyclo[14.7.2.0^3,6.0^19,24]pentacosa[8,16,18,24]tetraen]-15′-one 13′,13′-dioxide]
1.45	587	CO[C@H]1C[C@@H](N2[C@@H](C)C/C=C\[C@H](O)[C@@H]3CC[C@H]3CN3C[C@@]4(CCCc5cc(Cl)ccc54)COc4ccc(cc43)C(=O)NS2(=O)=O)C1 [Example 78, (1S,3′R,6′R,7′S,8′Z,11′S)-6-chloro-7′-hydroxy-12′-(cis-3-methoxycyclobutyl)-11′-methyl-3,4-dihydro-2H,15′H-spiro[naphthalene-1,22′-[20]oxa[13]thia[1,12,14]triazatetracyclo[14.7.2.0^3,6.0^19,24]pentacosa[8,16,18,24]tetraen]-15′-one 13′,13′-dioxide]
4.18	3620	COC1CC(N2[C@H](C)C/C=C/[C@H](O)[C@@H]3CC[C@H]3CN3C[C@@]4(CCCc5cc(Cl)ccc54)COc4ccc(cc43)C(=O)NS2(=O)=O)C1 (stereo partly drawn) [Example 79, (1S,3′R,6′R,7′S,8′E,11R)-6-chloro-7′-hydroxy-12′-(cis-3-methoxycyclobutyl)-11′-methyl-3,4-dihydro-2H,15′H-spiro[naphthalene-1,22′-[20]oxa[13]thia[1,12,14]triazatetracyclo[14.7.2.0^3,6.0^19,24]pentacosa[8,16,18,24]tetraen]-15′-one 13′,13′-dioxide]
7.8	2920	COCCO[C@H]1/C=C/C[C@H](C)N(Cc2ccc(OC)cc2)S(=O)(=O)NC(=O)c2ccc3c(c2)N(C[C@@H]2CC[C@H]21)C[C@@]1(CCCc2cc(Cl)ccc21)CO3 [Example 82, (1S,3′R,6′R,7′S,8′E,11′S)-6-chloro-12′-(4-methoxybenzyl)-7′-(2-methoxyethoxy)-11′-methyl-3,4-dihydro-2H,15′H-spiro[naphthalene-1,22′-[20]oxa[13]thia[1,12,14]triazatetracyclo[14.7.2.0^3,6.0^19,24]pentacosa[8,16,18,24]tetraen]-15′-one 13′,13′-dioxide]
0.419	487	C[C@H]1C/C=C/[C@H](O)[C@@H]2CC[C@H]2CN2C[C@@]3(CCCc4cc(Cl)ccc43)COc3ccc(cc32)C(=O)NS(=O)(=O)N1C [Example 83, (1S,3′R,6′R,7′S,8′E,11′S)-6-chloro-7′-hydroxy-11′,12′-dimethyl-3,4-dihydro-2H,15′H-spiro[naphthalene-1,22′-[20]oxa[13]thia[1,12,14]triazatetracyclo[14.7.2.0^3,6.0^19,24]pentacosa[8,16,18,24]tetraen]-15′-one 13′,13′-dioxide]
13.2	5900	CCN1[C@H](C)CCC[C@H](O)[C@@H]2CC[C@H]2CN2C[C@@]3(CCCc4cc(Cl)ccc43)COc3ccc(cc32)C(=O)NS1(=O)=O [Example 84, (1S,3′R,6′R,7′S,11R)-6-chloro-12′-ethyl-7′-hydroxy-11′-methyl-3,4-dihydro-2H,15′H-spiro[naphthalene-1,22′-[20]oxa[13]thia[1,12,14]triazatetracyclo[14.7.2.0^3,6.0^19,24]pentacosa[16,18,24]trien]-15′-one 13′,13′-dioxide]
1.88	1910	CCN1[C@@H](C)CCC[C@H](O)[C@@H]2CC[C@H]2CN2C[C@@]3(CCCc4cc(Cl)ccc43)COc3ccc(cc32)C(=O)NS1(=O)=O [Example 85, (1S,3′R,6′R,7′S,11′S)-6-chloro-12′-ethyl-7′-hydroxy-11′-methyl-3,4-dihydro-2H,15′H-spiro[naphthalene-1,22′-[20]oxa[13]thia[1,12,14]triazatetracyclo[14.7.2.0^3,6.0^19,24]pentacosa[16,18,24]trien]-15′-one 13′,13′-dioxide]
3.31	3540	C=CCN1CCCC[C@H](O)[C@@H]2CC[C@H]2CN2C[C@@]3(CCCc4cc(Cl)ccc43)COc3ccc(cc32)C(=O)NS1(=O)=O [Example 87, (1S,3′R,6′R,7′S)-6-chloro-7′-hydroxy-12′-(2-propen-1-yl)-3,4-dihydro-2H,15′H-spiro[naphthalene-1,22′-[20]oxa[13]thia[1,12,14]triazatetracyclo[14.7.2.0^3,6.0^19,24]pentacosa[16,18,24]trien]-15′-one 13′,13′-dioxide]
1.71	1040	CCN1CC/C=C/[C@H](OCc2cscn2)[C@@H]2CC[C@H]2CN2C[C@@]3(CCCc4cc(Cl)ccc43)COc3ccc(cc32)C(=O)NS1(=O)=O [Example 88, (1S,3′R,6′R,7′S,8′E)-6-chloro-12′-ethyl-7′-(1,3-thiazol-4-ylmethoxy)-3,4-dihydro-2H,15′H-spiro[naphthalene-1,22′-[20]oxa[13]thia[1,12,14]triazatetracyclo[14.7.2.0^3,6.0^19,24]pentacosa[8,16,18,24]tetraen]-15′-one 13′,13′-dioxide]
